# Experimental data published in patent publication US6559148B1, “Use of P2Y purinoreceptor antagonist for the treatment of ischemia reperfusion” (Consiglio Nazionale delle Ricerche, priority 1998, dated 2003).
# Entries after “also recorded” stand apart in the source; their conditions may differ.
# System: Wistar albino adult male rats
# Assay: Transient global cerebral ischemia by 4-vessel occlusion (4-VO, Pulsinelli and Brierley method) for 30 minutes
# Type: in vivo, rat
# Conditions: 30 minutes global ischemia
# Experimental: By way of non-limiting example of the present invention, some experimental examples are given herein that show the effectiveness of the compounds modulating P2 purinoceptors, and in particular Basilen Blue, in the reduction of mortality induced by global ischemia. In particular, for such analysis Wistar albino adult male rats weighting 220-250 g have been utilized. Basilen Blue was diluted in saline solution. After a 12 hour fast, transient cerebral ischemia was induced in the rats by the Pulsinelli and Brierley method (Stroke, 10:267-272, 1979). The animals were anesthetized with 2% halotane in a mixture of 30% O2 and 70% N2O. Both vertebral arteries were electrically cauterized and thin claps from Teflon were loosely and reversibly placed around the common carotid arteries. The animals were allowed to recover from anesthesia and kept one per cage, under standard conditions of humidity, temperature and light. The following day, the rats were submitted to a mild anesthesia always with halothane and the claps previously placed around the common carotid arteries were tightened to produce the occlusion of 4 vessels (4-VO) for 30 minutes (in 24 animals). The absence of locomotion activity, the loss of corneal and righting reflexes and the presence of paralytic mydriasis, which took place after 1-2 minutes from the carotid occlusion, were the criteria according to which the animals were considered ischemic and included in the study. The rectal temperature was monitored during the following recovery period and kept constant at a temperature between 36.5 and 37° C. until the rats recovered the locomotion activity and the thermal homeostasis. […]
# Wistar albino male rats, having a mean weight of 220-250 g, treated with saline solution (controls) or Basilen Blue were submitted for 30 minutes to global cerebral ischemia, the whole as described previously. The mortality was then monitored for two days following the carotid occlusion in a total of 24 animals (11 controls and 13 treated with Basilen Blue). […]
substance,measurement,setting,value
Basilen Blue E-3G (Reactive Blue 2),neuronal damage to the hippocampus (neurons lost in CA1-CA2 sectors),"2 x 4,5 mg/kg i.p., vs saline controls",less severe
same,mortality index compared to control group,"2 x 4,5 mg/kg i.p., vs saline controls, p>0,05 as printed",significantly lower; also recorded: reduces the mortality
same,animals died (mortality) within two days from the carotid occlusion,"Basilen Blue 4,5 mg/kg i.p. 15 minutes before and 3 hours after carotid occlusion, control group 5 out of 11 died",3 out of the 13
